Values after ≈ are worked out from the molar mass of the structure shown. Values joined by “and” are separate entries in the source; they are usually repeats but may differ in a detail not shown here. Equal values may be shown once. “Also recorded” adds a separate entry of the source. Read-outs that look alike come from different tables or passages of the source.
Key:
L. pneumophila [1] = conditions: cited from earlier work
L. pneumophila [2] = conditions: cited from earlier work; remark: listed apart in the source
[3] = test system: L. pneumophila Philadelphia 1; format: cell-based, Legionella pneumophila; conditions: disks 2.5 mg or 1.0 mg, BCYE plates, four days
L. pneumophila F4b [4] = format: cell-based, Legionella pneumophila; conditions: disks 2.5 mg or 1.0 mg, BCYE plates, four days
[5] = test system: L. pneumophila Philadelphia 1; experiment: microbe, parasite or virus in culture; format: cell-based, Legionella pneumophila; conditions: for MIC90: Legionella pneumophila, 48 h, read-out: MIC which inhibited 90% of L. pneumophila growth (MIC90)
[6] = test system: L. pneumophila in human monocyte-derived macrophages; format: cell-based, Legionella pneumophila
[7] = test system: L. pneumophila Philadelphia 1; experiment: microbe, parasite or virus in culture; format: cell-based, Legionella pneumophila; conditions: for inhibition of 14C-acetate incorporation: 0.5 mM
L. pneumophila FabX = format: biochemical, Legionella pneumophila; conditions: dodecenoyl-CoA substrate, 100 μM NADH, pH 7.4
L. pneumophila FabT = format: biochemical, Legionella pneumophila; conditions: dodecenoyl-CoA substrate, 100 μM NADH, pH 7.4
M. tuberculosis InhA = M. tuberculosis InhA (Mycobacterium tuberculosis, UniProt P9WGR1); conditions: pH 7.4
M. tuberculosis InhA, sequence (P9WGR1 whole entry, looked up): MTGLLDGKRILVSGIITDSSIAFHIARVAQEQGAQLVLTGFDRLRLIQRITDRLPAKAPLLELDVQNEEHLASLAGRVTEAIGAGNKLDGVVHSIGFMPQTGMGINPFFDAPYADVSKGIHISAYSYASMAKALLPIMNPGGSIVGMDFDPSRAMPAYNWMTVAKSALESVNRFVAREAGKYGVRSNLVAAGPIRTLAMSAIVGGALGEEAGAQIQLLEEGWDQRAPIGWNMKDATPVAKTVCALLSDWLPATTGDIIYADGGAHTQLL

L. pneumophila lysates = format: biochemical, Legionella pneumophila; conditions: for inhibition of 14C-acetate incorporation, lysates compared with whole cells: 0.4 mM or 2.0 mM
[8] = target: L. pneumophila FabX enoyl reductase (His-tagged FabX); format: biochemical; conditions: competitive with regard to DCA (dodecenoyl-CoA) substrate; 100 μM NADH, 100 mM NaPO4 pH 7.4; value (+/- spread)
[9] = target: L. pneumophila FabT enoyl reductase (His-tagged FabT) (Legionella pneumophila, UniProt Q5ZUE4); experiment: biochemical
L. pneumophila FabT enoyl reductase (His-tagged FabT), sequence (Q5ZUE4 1-268): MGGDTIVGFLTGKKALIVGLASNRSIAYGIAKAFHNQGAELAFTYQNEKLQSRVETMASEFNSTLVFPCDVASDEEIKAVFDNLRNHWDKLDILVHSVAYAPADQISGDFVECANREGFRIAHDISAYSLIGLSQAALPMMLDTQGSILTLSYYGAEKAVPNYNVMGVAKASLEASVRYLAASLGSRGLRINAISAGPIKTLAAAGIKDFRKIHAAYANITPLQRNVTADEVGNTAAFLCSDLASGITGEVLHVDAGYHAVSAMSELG

[10] = target: M. tuberculosis InhA enoyl reductase (Mycobacterium tuberculosis, UniProt P9WGR1); experiment: biochemical
M. tuberculosis InhA enoyl reductase, sequence (P9WGR1 whole entry, looked up): as the sequence (P9WGR1 whole entry, looked up) above

[11] = test system: L. pneumophila in PMA-differentiated HL-60 cells; format: cell-based, Legionella pneumophila
[12] = Solubility observations in media; format: physicochemical; conditions: aqueous medium
Legionella sp. strains = format: cell-based
bacterial species = format: cell-based
Nocardia sp. = format: cell-based
atypical mycobacteria = experiment: Zone of inhibition assay; format: cell-based; conditions: standard laboratory media
Pseudomonas aeruginosa = format: cell-based
M. tuberculosis strains [13] = experiment: M. tuberculosis susceptibility assay on Middlebrook agar; format: cell-based, Mycobacterium tuberculosis; conditions: 27 strains, OADC Middlebrook agar, three weeks 37° C.
M. tuberculosis strains [14] = experiment: M. tuberculosis 7H9 broth assay; format: cell-based, Mycobacterium tuberculosis; conditions: 21 days, turbidity
L. pneumophila [15] = format: cell-based, Legionella pneumophila; conditions: GFZ 30 μg/ml, three days on CYE agar
L. pneumophila F4b [16] = experiment: microbe, parasite or virus in culture; format: cell-based; conditions: Legionella pneumophila, read-out: concentration giving 50% inhibition of 14C-acetate incorporation
[17] = test system: Listeria monocytogenes in mouse J774 macrophage-like cells; conditions: GFZ in combination with norfloxacin; cited from earlier work
J774 cells = conditions: treatment of J774 cells with GFZ; cited from earlier work
[18] = mouse, in vivo; cited from earlier work
Saccharomyces cerevisiae = experiment: Zone of inhibition assay on SAB medium
Candida albicans = experiment: Zone of inhibition assay on SAB medium

For CO[C@H]1/C=C/O[C@@]2(C)Oc3c(C)c(O)c4c(O)c(c(/C=N/N5CCN(C)CC5)c(O)c4c3C2=O)NC(=O)/C(C)=C\C=C\[C@H](C)[C@H](O)[C@@H](C)[C@@H](O)[C@@H](C)[C@H](OC(C)=O)[C@@H]1C [rifampin], which “concentration inhibiting extracellular growth” value (L. pneumophila [1]) is on record?
Its value is 0.002 µg/mL.

What about the “concentration inhibiting intracellular growth” value (L. pneumophila [2]) of the same molecule?
Its value is 0.1 µg/mL.

Which results are given for O=C(O)CCc1ccc(O)c(O)c1 [3,4-HPA, 3,4-dihydroxyphenyl propionic acid]?
antibacterial activity by zone of inhibition [3]: equally inhibitory; antibacterial activity by zone of inhibition (L. pneumophila F4b [4]): equally inhibitory

For CCOC(=O)C(C)(C)Oc1ccc(Cl)cc1 [clofibrate], which “MIC which inhibited 90% of L. pneumophila growth (MIC90)” value ([5]; AYE broth, 48 hrs at 37° C.) is on record?
Its value is 100 µg/mL.

And the “effectiveness at inhibiting intracellular growth relative to GFZ” value [6]?
Its value is “much less effective than GFZ”.

And the “intracellular growth of L. pneumophila in human macrophages” value (“intracellular growth of L. pneumophila” for short) ([6]; 1 mM)?
The value was “able to slow L. pneumophila growth”.

What about the “inhibition of 14C-acetate incorporation” value [7] of the same molecule?
The value was “some efficacy”.

Which “inhibition of 14C-acetate incorporation” value [7] does the source give for Nc1ccc(C(=O)O)c(O)c1 [P-aminosalicyclic acid, para-aminosalicylate] here?
Its value is “some efficacy”.

Which results are given for Cc1ccc(C)c(OCCCC(C)(C)C(=O)SCCNC(=O)CCNC(=O)[C@H](O)C(C)(C)COP(=O)(O)OP(=O)(O)OC[C@H]2O[C@@H](n3cnc4c(N)ncnc43)[C@H](O)[C@@H]2OP(=O)(O)O)c1 [GFZ-CoA]?
mode of inhibition of enoyl reductase activity (L. pneumophila FabX): competitive inhibitor; mode of inhibition of enoyl reductase activity (L. pneumophila FabT): competitive inhibitor; mode of inhibition of enoyl reductase activity (M. tuberculosis InhA): competitive inhibitor

Which results are given for C/C=C/C/C=C/CCC(=O)[C@H]1O[C@H]1C(N)=O [Cerulenin, cerulenin]?
inhibition of 14C-acetate incorporation relative to GFZ at 100 μg/ml ([7]; 100 μg/ml (0.45 mM)): slightly better inhibitor; inhibition of 14C-acetate incorporation, lysates compared with whole cells (L. pneumophila lysates): less effective inhibitor

Which “antibacterial activity by zone of inhibition” value [3] does the source give for O=C(O)c1ccccc1O [2-hydroxybenzoic acid] here?
The value was “more sensitive to 2-hydroxybenzoic acid (salicylic acid) than GFZ”.

And the “antibacterial activity by zone of inhibition” value (L. pneumophila F4b [4])?
The value was “more sensitive to 2-hydroxybenzoic acid (salicylic acid) than GFZ”.

What about the “inhibition of 14C-acetate incorporation” value [7] of the same molecule?
Its value is “some efficacy”.

For CC[C@H]1OC(=O)[C@H](C)[C@@H](O[C@H]2C[C@@](C)(OC)[C@@H](O)[C@H](C)O2)[C@H](C)[C@@H](O[C@@H]2O[C@H](C)C[C@H](N(C)C)[C@H]2O)[C@](C)(O)C[C@@H](C)C(=O)[C@H](C)[C@@H](O)[C@]1(C)O [erythromycin], which “concentration inhibiting extracellular growth” value (L. pneumophila [1]) is on record?
The value was 0.2 µg/mL.

What does the source list for Cc1ccc(C)c(OCCCC(C)(C)C(=O)SCCNC(=O)CCNC(=O)[C@H](O)C(C)(C)COP(=O)(O)OP(=O)(O)OC[C@H]2O[C@@H](n3cnc4c(N)ncnc43)[C@H](O)[C@@H]2OP(=O)(O)O)c1 [GFZ]?
Ki [8]: 122 µM; Ki [9]: 127 µM; Ki [10]: 210 µM

Which “bacteriostatic or bacteriocidal effect” value ([5]; 10-200 μg/ml, aliquots of MIC cultures plated on CYE) does the source give for Cc1ccc(C)c(OCCCC(C)(C)C(=O)O)c1 [GFZ, gemfibrozil] here?
Its value is “bacteriostatic”.

What about the MIC90 [5] of the same molecule?
The MIC90 was 10 µg/mL (≈ 39.9 µM).

What about the “L. pneumophila intracellular growth” value ([11]; GFZ 0.4 mM (100 μg/ml)) of the same molecule?
The value was “inhibition of L. pneumophila intracellular growth”.

And the “concentration required to inhibit intracellular growth within macrophages” value ([11]; macrophages)?
Its value is 100 µg/mL.

And the “time after infection at which inhibition of bacterial growth was seen” value ([11]; single-round growth assay with gentamicin, GFZ 0.4 mM (100 μg/ml))?
Its value is no more than 8 h.

And the “intracellular growth of L. pneumophila” value ([6]; 0.4 mM (100 μg/ml))?
Its value is “inhibited the intracellular growth”.

What about the “intracellular growth of L. pneumophila” value ([6]; 0.6 mM compared with 0.4 mM) of the same molecule?
The value was “no further reduction in L. pneumophila colonies”.

And the “solubility in relation to pH” value [12]?
The value was “insoluble at an acid pH; also recorded: decreases as pH decreases”.

What about the “sensitivity of Legionella sp. strains (zone of inhibition)” value (Legionella sp. strains) of the same molecule?
The value was “All 39 Legionella sp. strains were sensitive”.

What about the “sensitivity of nonpathogenic bacterial strains” value (bacterial species) of the same molecule?
The value was “four of the eight strains tested demonstrated sensitivity”.

And the “share of bacterial species tested that demonstrated susceptibility” value (bacterial species)?
Its value is 33%.

And the zone of inhibition (Nocardia sp.)?
The zone of inhibition was 40-60 mm.

What about the susceptibility (atypical mycobacteria) of the same molecule?
Its susceptibility is “resistant”.

And the growth inhibition (Pseudomonas aeruginosa)?
The growth inhibition was “did not inhibit the growth”.

And the “concentration that completely inhibited growth of all M. tuberculosis strains” value (M. tuberculosis strains [13])?
The value was 100 to 200 µg/mL.

And the “growth of M. tuberculosis strains in 7H9 broth” value (M. tuberculosis strains [14])?
Its value is “inhibits the growth”.

And the “change in amount of 3-HB-propyl ester” value (L. pneumophila [15])?
Its value is “fifty-fold increase”.

What about the IC50 ([7]; Legionella pneumophila, 0.25 h, read-out: concentration giving fifty percent inhibition of 14C-acetate incorporation) of the same molecule?
The IC50 was 25 µg/mL (≈ 99.9 µM).

What about the IC50 ([7]; Legionella pneumophila, 1 h, read-out: concentration giving 50% inhibition of 14C-acetate incorporation) of the same molecule?
The IC50 was 10 µg/mL and 40 µM.

And the IC50 ([7]; Legionella pneumophila, read-out: concentration giving 50% inhibition of 14C-acetate incorporation)?
Its IC50 is 100 µM and 25 µg/mL.

And the inhibition at 400 µM ([7]; Legionella pneumophila, read-out: inhibition of 14C-acetate incorporation into TCA precipitable material in whole cells)?
Its inhibition at 400 µM is greater than 90%.

What about the “lowest concentration that inhibited 14C-acetate incorporation” value ([7]; within 15 minutes) of the same molecule?
The value was 10 µg/mL.

What about the IC50 (L. pneumophila F4b [16]) of the same molecule?
The IC50 was 100 µg/mL and 400 µM.

What about the “inhibition of 14C-acetate incorporation into TCA precipitable material in a lysate” value (L. pneumophila lysates; 0.4 mM) of the same molecule?
Its value is 15%.

And the “inhibition of 14C-acetate incorporation, lysates compared with whole cells” value (L. pneumophila lysates)?
Its value is “not as effective an inhibitor in these lysates as it was in whole cells”.

What about the “inhibition of 14C-acetate incorporation in lysate, comparison between inhibitors” value (L. pneumophila lysates; 2 mM) of the same molecule?
Its value is “not as potent as cerulenin in lysates”.

And the “viability of uninfected HL-60 cells” value (HL-60 cells)?
The value was “did not affect the viability”.

And the “protection of infected HL-60 cells from L. pneumophila cytolytic effects” value (HL-60 cells; 100 μg/ml, infection multiplicity of 0.1 bacteria/cell, 5 days)?
Its value is “protected infected HL-60 cells”.

What about the “reduction of the norfloxacin concentration required to block intracellular growth” value [17] of the same molecule?
Its value is “fourfold”.

What about the “increase of intracellular concentration of norfloxacin” value (J774 cells) of the same molecule?
The value was “fourfold”.

And the LD50 [18]?
Its LD50 is 250 mg/20 gm mouse per day.

What about the susceptibility (Saccharomyces cerevisiae; SAB medium buffered to pH 7) of the same molecule?
The susceptibility was “susceptible”.

What about the zone of inhibition (Saccharomyces cerevisiae; unbuffered medium) of the same molecule?
The zone of inhibition was “No zone of inhibition”.

What about the susceptibility (Candida albicans; SAB medium buffered to pH 7) of the same molecule?
The susceptibility was “susceptible”.

What about the zone of inhibition (Candida albicans; unbuffered medium) of the same molecule?
The zone of inhibition was “No zone of inhibition”.

Which results are given for O=C(O)CCc1ccc(O)cc1 [Analog 4-HPA, 4-hydroxyphenylpropionic acid]?
antibacterial activity by zone of inhibition [3]: equally inhibitory; antibacterial activity by zone of inhibition (L. pneumophila F4b [4]): equally inhibitory

For CC(C)(Oc1ccc(CCNC(=O)c2ccc(Cl)cc2)cc1)C(=O)O [bezafibrate], which MIC90 [5] is on record?
Its MIC90 is 250 µg/mL (≈ 691 µM).

Source: patent US6881553B2 (priority 1999, dated 2005)
